Patent US20090018120A1, “AMIDINE DERIVATIVES AND THEIR APPLICATIONS AS A MEDICAMENT” (priority 2005, published 2009)
Several values for one entry are separate records, joined by “and”; a condition that tells them apart may be missing. Equal entries are not always repeated. Where two headings read alike, the source gives them in different places.

How the values were obtained:
[1] = test system: neuromast ciliated cells of Zebrafish; assay: Ototoxicity induced by gentamycin in Zebrafish: protection of neuromast ciliated cells (DASPEI staining); type: in vivo; settings: for EC50: Danio rerio, 0, 25, 50, 100 μM, co-treatment with gentamycin 1 μg/ml, concentration which allows 50% of stained cells to be visualized, read-out: EC50 μM (survival of the ciliated cells in % of the control); for control % (% staining signal of the ciliated cells): positive control = 100%
From the text: Ototoxicity Induced after a Treatment with Gentamycin: Protective Effect of the Compounds According to the Invention
Principle of the test: gentamycin and other aminoglycosides cause damage to ciliated cells and a hearing loss in humans. Zebrafish have sensory organs known as neuromasts on the surface of their body. These neuromast ciliated cells are structurally and functionally similar to the internal ciliated cells of the human ear. In these fish, the neuromast ciliated cells can be stained with DASPEI (2,4-dimethyl-aminostyryl-N-ethyl pyridinium iodide) and this staining reflects the number of functional ciliated cells.
Damage to the internal ciliated cells is induced in the Zebrafish with a gentamycin treatment. In order to test the protective effect of the compound to be tested on ciliated cells damaged by gentamycin, the compound was administered as a co-treatment with gentamycin. The internal ciliated cells are then stained and quantified.
The study is carried out on 5-day old fish, incubated with 1 μg/ml of gentamycin for 24 hours in the presence or the absence of the compound. Controls are carried out in parallel; vehicle alone (1% DMSO; positive control). Fish treated with gentamycin only are the negative controls.
The EC50 (concentration of the substance to be tested which protects 50% of the cells from cell death) is calculated from this concentration-effect.
The DASPEI staining is carried out to visualize the ciliated cells in vivo (n=6 per group). Morphometric analysis is used to quantify the staining signal of the ciliated cells. The DASPEI staining signal of the positive controls was defined as 100%.
Positive control (Zebrafish-1% DMSO); Negative control (Zebrafish-1% DMSO-gentamycin 1 μg/ml) and effect of the products (Zebrafish-1% DMSO-gentamycin-compound). Experiment carried out on 6 animals per group.

calpain = assay: Effect in situ on the calpain enzymatic activity of human skeletal cells (SKM), maitotoxin-activated, Suc-Leu-Tyr-AMC substrate; type: cell-based; settings: read-out: IC50 (concentration which inhibits 50% of the enzyme activity), SKM myotubes, 3 h at 30° C.
Protocol: Effect In Situ of the Compounds According to the Invention on the Calpain Enzymatic Activity of Human Skeletal Cells (SKM)
The principle of the test is the following: maitotoxin is a toxin which causes the opening of the calcium channels of cells. The resulting intra-cellular flow of calcium is at the origin of the death of the cell. During this process of cell death, a cysteine-dependent protease, calpain, is activated. The test consists of incubating the cells in the presence of maitotoxin, in order to activate the calpain enzyme, and adding a calpain substrate which fluoresces when the enzyme cleaves this substrate. Finally, calpain inhibitors are tested.
The myoblasts are seeded at 2500 cells per well in 96-well plates in a DMEM 10% FCS (foetal calf serum) culture medium supplemented with amphotericin B, human recombinant epidermal growth factor and dexamethasone. Three days after seeding, the cells have adhered to the bottom of the well, the differentiation of the cells to myotubes is induced by adding 100 μl of DMEM F12 medium containing 2% horse serum. […] The background noise is determined by preparing additional control wells without MTX. […] The plates are stirred, the fluorescence is read at 380/460 nm using a so-called Victor device at time zero. […]
The fluorescence values make it possible to calculate a concentration-effect for each of the compounds. […]

[2] = test system: human skeletal cells (SKM); assay: Protective effect on cell death induced by maitotoxin on human skeletal cells (SKM), WST-1; type: cell-based; settings: read-out: EC50 (concentration which protects 50% of the cells from cell death)
From the text: Protective Effect of the Compounds According to the Invention on Cell Death Induced by Maitotoxin on Human Skeletal Cells (SKM)
The principle of the test is the following: maitotoxin is a toxin which causes the opening of the calcium channels of cells. The resulting intra-cellular flow of calcium is at the origin of the death of the cell. During this process of cell death, a cysteine-dependent protease, calpain, is activated, and an abundance of free radicals is produced. The test consists of incubating the cells in the presence of the molecules to be tested, in order to delay or inactivate cell death and thus determine the protective effect.
The myoblasts are seeded at 2500 cells per well in 96-well plates in a DMEM 10% FCS (foetal calf serum) culture medium supplemented with amphotericin B, human recombinant epidermal growth factor and dexamethasone. […]
After an incubation time of 3 h or 96 h, the culture medium is replaced by a DMEM 10% FCS medium supplemented by 10% WST-1, WST-1 (Roche, reference 1644807) is a reagent which stains metabolically active cells, i.e. live cells. […] Then the number of live cells is determined using a Perkin-Elmer Wallac Envision 2101 device by reading the absorbance at 450 nm. The concentration-effect of the products on the cell survival fraction is then calculated. […]

[3] = compound 50 μM as co-treatment with gentamycin 1 μg/ml

CC(=O)OC1OCC[C@@H]1NC(=O)[C@H](CC(C)C)NC(=N)c1ccc2c(c1)Nc1ccccc1S2.I (stereo partly drawn) [Example 4, (3S)-3-({N-[imino(10H-phenothiazin-2-yl)methyl]-L-leucyl}amino)tetrahydrofuran-2-yl acetate hydroiodide]
EC50 [1]: 51 µM
protection of the ciliated cells damaged by the gentamycin treatment [1, 3]: 36.2%
control % (% staining signal of the ciliated cells) ([1]; compound 50 μM as co-treatment with gentamycin 1 μg/ml, 24 hours, 5-day old fish, acetate hydroiodide): 49% and 49 ± 5%

CC(C)C[C@H](NC(=N)c1ccc2c(c1)Nc1ccccc1S2)C(=O)N[C@H]1CCOC1O.I (stereo partly drawn) [Example 5, N^1-[(3S)-2-hydroxytetrahydrofuran-3-yl]-N^2-[imino(10H-phenothiazin-2-yl)methyl]-L-leucinamide hydroiodide]
IC50 (calpain): < 20 µM
EC50 [1]: 32 µM
protection of the ciliated cells damaged by the gentamycin treatment [1, 3]: 40%
control % (% staining signal of the ciliated cells) ([1]; compound 50 μM as co-treatment with gentamycin 1 μg/ml, 24 hours, 5-day old fish, hydroiodide): 52% and 52 ± 10%

C[C@H]1C[C@@H]2[C@H]([C@@H](O)C[C@@]3(C)[C@H]2CC[C@]3(O)C(=O)CO)[C@@]2(C)C=CC(=O)C=C12 [a-methylprednisolone]
EC50 ([2]; after incubation for 3 hours in the presence of maitotoxin): 354 µM
EC50 ([2]; after incubation for 96 hours in the presence of maitotoxin): 196 µM

Gentamycin [reference compound]
loss of the ciliated cells following treatment with gentamycin ([1]; gentamycin 1 μg/ml alone, 24 hours): 80%
control % (% staining signal of the ciliated cells) ([1]; gentamycin 1 μg/ml alone, 24 hours (negative control)): 20 ± 0.6%
control % (% staining signal of the ciliated cells) ([1]; gentamycin 1 μg/ml alone, 24 hours (negative control), listed as gentamycin): 20%
